Data published in US20240226228A1, “ANTIMICROBIAL PEPTOID HAVING IMPROVED SELECTIVITY AND ANTIMICROBIAL COMPOSITION COMPRISING SAME” (priority 2021, published 2024).
Converted amounts (≈) assume the structure as drawn. Like-named read-outs stand apart in the source and are kept apart here. Where a SMILES comes first, the peptide text is derived from it. [ ]: non-standard residue; d: D form. Gly(N(CH2)2(3-indolyl)) = O=C(O)CNCCc1c[nH]c2ccccc12; Gly(N-CH2CH2-imidazol-4-yl) = O=C(O)CNCCc1c[nH]cn1; Nspe = C[C@H](NCC(=O)O)c1ccccc1; Nphe = O=C(O)CNCc1ccccc1; Nlys = NCCCCNCC(=O)O

Legend:
red blood cells = assay: Hemolysis assay; format: cell-based, Sprague-Dawley mouse
In short: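 Peptoid is mixed with 10% (v/v) PBS-washed erythrocytes (male Sprague-Dawley […], 13 weeks) and held 1 h at 37 °C. Hemolysis is calculated from 540 nm absorbance of the supernatant, with PBS as 0% and Triton X-100 as 100%.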

S. aureus ATCC 25923 = test system: S. aureus ATCC 25923
In short: (§1)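 Cation-adjusted MHB2 cultures (18 h, subcultured 4 h) adjusted to 2×10^5–5×10^5 CFU/mL in medium with 0.02% BSA and 0.001% acetic acid.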

E. coli ATCC25922 = test system: E. coli ATCC25922
In short: as §1

[1] = Tables 11-13, 24 hours at 37° C., maximum concentration 25 μM
[2] = Table 18, TFA salt vs counter ion-substituted (HCl, AcOH) peptoids

Row | MIC S. aureus ATCC 25923 (S. aureus ATCC 25923; ATCC 25923) [µM] | MIC E. coli ATCC25922 (E. coli ATCC25922; ATCC25922) [µM] | SMILES | HC10 (red blood cells) | HC50 (red blood cells) | Hmax (100 μM) (red blood cells) | MIC S. aureus ATCC 25923 (S. aureus ATCC 25923; [1]) [µM] | MIC E. coli ATCC25922 (E. coli ATCC25922; [1]) [µM] | MIC S. aureus ATCC 25923 (S. aureus ATCC 25923; [2]) [µM] | MIC E. coli ATCC25922 (E. coli ATCC25922; [2]) [µM] | HD10 (red blood cells) | HD50 (red blood cells)
1 | – | – | C[C@@H](c1ccccc1)N(CC(N)=O)C(=O)CN(CCCCN)C(=O)CN(CCCCN)C(=O)CN(C(=O)CN(C(=O)CN(CCCCN)C(=O)CN(C(=O)CN(C(=O)CN(CCCCN)C(=O)CN(Cc1ccccc1)C(=O)CN(Cc1ccccc1)C(=O)CNCCCCN)[C@@H](C)c1ccccc1)[C@@H](C)c1ccccc1)[C@@H](C)c1ccccc1)[C@@H](C)c1ccccc1 [Peptoid 47] | >100/>100 μM | >100/>100 μM | 4.8 ± 0.2% | 12.5 (≈ 22 µg/mL) | 25 (≈ 44 µg/mL) | – | – | – | –
2 | – | – | C[C@@H](c1ccccc1)N(CC(=O)N(CCCCN)CC(=O)N(CCCCN)CC(=O)N(CC(=O)N(CC(=O)N(CCCCN)CC(=O)N(CC(=O)N(CC(=O)N(CCCCN)CC(N)=O)[C@@H](C)c1ccccc1)[C@@H](C)c1ccccc1)[C@@H](C)c1ccccc1)[C@@H](C)c1ccccc1)C(=O)CN(CCCCN)C(=O)CN(CCc1c[nH]c2ccccc12)C(=O)CNCCc1c[nH]c2ccccc12 [Peptoid 38] (H-[Gly(N(CH2)2(3-indolyl))][Gly(N(CH2)2(3-indolyl))][Nlys][Nspe][Nlys][Nlys][Nspe][Nspe][Nlys][Nspe][Nspe][Nlys]-NH2) | >100/>100 μM | >100/>100 μM | 5.9 ± 0.5% | 6.3 (≈ 11.7 µg/mL) | 12.5 (≈ 23.3 µg/mL) | – | – | – | –
3 | – | – | C[C@@H](c1ccccc1)N(CC(N)=O)C(=O)CN(C(=O)CN(CCCCN)C(=O)CN(C(=O)CN(C(=O)CN(CCCCN)C(=O)CN(CCc1c[nH]c2ccccc12)C(=O)CN(CCc1c[nH]c2ccccc12)C(=O)CN(CCCCN)C(=O)CN(C(=O)CN(C(=O)CNCCCCN)[C@@H](C)c1ccccc1)[C@@H](C)c1ccccc1)[C@@H](C)c1ccccc1)[C@@H](C)c1ccccc1)[C@@H](C)c1ccccc1 [Peptoid 13] | 20.2 µM | 41.3 µM | 96.8 ± 1.6% | <0.8 | 6.3 (≈ 12 µg/mL) | – | – | – | –
4 | – | – | C[C@H](NCC(=O)N(CCCCN)CC(=O)N(CC(=O)N(CC(=O)N(CCCCN)CC(=O)N(CC(=O)N(CC(=O)N(CCCCN)CC(=O)N(CC(=O)N(CC(=O)N(CCCCN)CC(=O)N(CC(N)=O)[C@@H](C)c1ccccc1)[C@@H](C)c1ccccc1)[C@@H](C)c1ccccc1)[C@@H](C)c1ccccc1)[C@@H](C)c1ccccc1)[C@@H](C)c1ccccc1)[C@@H](C)c1ccccc1)c1ccccc1 [Peptoid 48] (H-[Nspe][Nlys][Nspe][Nspe][Nlys][Nspe][Nspe][Nlys][Nspe][Nspe][Nlys][Nspe]-NH2) | 25.7 µM | 48.4 µM | 79.9 ± 3.6% | 3.1 (≈ 5.64 µg/mL) | 12.5 (≈ 22.7 µg/mL) | – | – | – | –
5 | – | – | C[C@@H](c1ccccc1)N(CC(N)=O)C(=O)CN(C(=O)CN(CCCCN)C(=O)CN(C(=O)CN(C(=O)CN(CCCCN)C(=O)CN(CCc1c[nH]c2ccccc12)C(=O)CN(C(=O)CN(CCCCN)C(=O)CN(C(=O)CN(CCCCN)C(=O)CNCCCCN)[C@@H](C)c1ccccc1)[C@@H](C)c1ccccc1)[C@@H](C)c1ccccc1)[C@@H](C)c1ccccc1)[C@@H](C)c1ccccc1 [Peptoid 27] | >100/>100 μM | >100/>100 μM | 5.9 ± 0.2% | 3.1 (≈ 5.66 µg/mL) | 25 (≈ 45.6 µg/mL) | – | – | – | –
6 | – | – | C[C@@H](c1ccccc1)N(CC(=O)N(CCCCN)CC(=O)N(CCCCN)CC(=O)N(CCc1c[nH]c2ccccc12)CC(=O)N(CCc1c[nH]c2ccccc12)CC(N)=O)C(=O)CN(CCCCN)C(=O)CN(C(=O)CN(C(=O)CN(CCCCN)C(=O)CN(C(=O)CN(C(=O)CNCCCCN)[C@@H](C)c1ccccc1)[C@@H](C)c1ccccc1)[C@@H](C)c1ccccc1)[C@@H](C)c1ccccc1 [Peptoid 28] (H-[Nlys][Nspe][Nspe][Nlys][Nspe][Nspe][Nlys][Nspe][Nlys][Nlys][Gly(N(CH2)2(3-indolyl))][Gly(N(CH2)2(3-indolyl))]-NH2) | >100/>100 μM | >100/>100 μM | 8.9 ± 1.4% | 6.3 (≈ 11.7 µg/mL) | 12.5 (≈ 23.3 µg/mL) | – | – | – | –
7 | – | – | C[C@@H](c1ccccc1)N(CC(N)=O)C(=O)CN(C(=O)CN(CCCCN)C(=O)CN(C(=O)CN(CCc1c[nH]c2ccccc12)C(=O)CN(CCCCN)C(=O)CN(CCc1c[nH]c2ccccc12)C(=O)CN(C(=O)CN(CCCCN)C(=O)CN(C(=O)CN(C(=O)CNCCCCN)[C@@H](C)c1ccccc1)[C@@H](C)c1ccccc1)[C@@H](C)c1ccccc1)[C@@H](C)c1ccccc1)[C@@H](C)c1ccccc1 [Peptoid 15-2] | 39.2 µM | > 100 µM | 34.1 ± 1.1% | – | – | 3.1 | 6.3 | – | –
8 | – | – | C[C@@H](c1ccccc1)N(CC(N)=O)C(=O)CN(C(=O)CN(CCCCN)C(=O)CN(C(=O)CN(C(=O)CN(CCCCN)C(=O)CN(CCc1c[nH]c2ccccc12)C(=O)CN(CCCCN)C(=O)CN(CCCCN)C(=O)CN(C(=O)CN(C(=O)CNCCCCN)[C@@H](C)c1ccccc1)[C@@H](C)c1ccccc1)[C@@H](C)c1ccccc1)[C@@H](C)c1ccccc1)[C@@H](C)c1ccccc1 [Peptoid 26] | >100/>100 μM | >100/>100 μM | 0.7 ± 0.1% | 6.3 (≈ 11.5 µg/mL) | >25 | – | – | – | –
9 | 6.3 (≈ 11.9 µg/mL) | 6.3 (≈ 11.9 µg/mL) | C[C@@H](c1ccccc1)N(CC(N)=O)C(=O)CN(CCCCN)C(=O)CN(CCc1c[nH]cn1)C(=O)CN(C(=O)CN(C(=O)CN(CCCCN)C(=O)CN(C(=O)CN(C(=O)CN(CCCCN)C(=O)CN(CCc1c[nH]c2ccccc12)C(=O)CN(CCc1c[nH]c2ccccc12)C(=O)CNCCCCN)[C@@H](C)c1ccccc1)[C@@H](C)c1ccccc1)[C@@H](C)c1ccccc1)[C@@H](C)c1ccccc1 [Peptoid 75] (H-[Nlys][Gly(N(CH2)2(3-indolyl))][Gly(N(CH2)2(3-indolyl))][Nlys][Nspe][Nspe][Nlys][Nspe][Nspe][Gly(N-CH2CH2-imidazol-4-yl)][Nlys][Nspe]-NH2) | – | – | 18.3 ± 1.1 | – | – | – | – | 68.0 | > 100.0
10 | – | – | NCCCCNCC(=O)N(CCc1c[nH]c2ccccc12)CC(=O)N(CCc1c[nH]c2ccccc12)CC(=O)N(CCCCN)CC(=O)N(CCc1c[nH]c2ccccc12)CC(=O)N(CCc1c[nH]c2ccccc12)CC(=O)N(CCCCN)CC(=O)N(CCc1c[nH]c2ccccc12)CC(=O)N(CCc1c[nH]c2ccccc12)CC(=O)N(CCCCN)CC(=O)N(CCc1c[nH]c2ccccc12)CC(=O)N(CCc1c[nH]c2ccccc12)CC(N)=O [Peptoid 23] (H-[Nlys][Gly(N(CH2)2(3-indolyl))][Gly(N(CH2)2(3-indolyl))][Nlys][Gly(N(CH2)2(3-indolyl))][Gly(N(CH2)2(3-indolyl))][Nlys][Gly(N(CH2)2(3-indolyl))][Gly(N(CH2)2(3-indolyl))][Nlys][Gly(N(CH2)2(3-indolyl))][Gly(N(CH2)2(3-indolyl))]-NH2) | 17.1 µM | 45.2 µM | 72.2 ± 0.3% | 1.6 (≈ 3.41 µg/mL) | 25 (≈ 53.3 µg/mL) | – | – | – | –
11 | – | – | C[C@@H](c1ccccc1)N(CC(N)=O)C(=O)CN(C(=O)CN(CCCCN)C(=O)CN(C(=O)CN(C(=O)CN(CCCCN)C(=O)CN(C(=O)CN(C(=O)CN(CCCCN)C(=O)CN(CCc1c[nH]c2ccccc12)C(=O)CN(CCc1c[nH]c2ccccc12)C(=O)CNCCCCN)[C@@H](C)c1ccccc1)[C@@H](C)c1ccccc1)[C@@H](C)c1ccccc1)[C@@H](C)c1ccccc1)[C@@H](C)c1ccccc1 [Peptoid 14-1] | 19.2 µM | 68.2 µM | 75.3 ± 5.0% | – | – | 3.1 | 3.1 | – | –
12 | – | – | NCCCCNCC(=O)N(CC(=O)N(CC(=O)N(CCCCN)CC(=O)N(CC(=O)N(CC(=O)N(CCCCN)CC(=O)N(CC(=O)N(CC(=O)N(CCCCN)CC(=O)N(CC(=O)N(CC(N)=O)Cc1ccccc1)Cc1ccccc1)Cc1ccccc1)Cc1ccccc1)Cc1ccccc1)Cc1ccccc1)Cc1ccccc1)Cc1ccccc1 [Peptoid 2] (H-[Nlys][Nphe][Nphe][Nlys][Nphe][Nphe][Nlys][Nphe][Nphe][Nlys][Nphe][Nphe]-NH2) | 20.4 µM | > 100.0 µM | 17.7 ± 1.1% | 3.1 (≈ 5.29 µg/mL) | 12.5 (≈ 21.3 µg/mL) | – | – | – | –
13 | 6.3 (≈ 11.9 µg/mL) | 6.3 (≈ 11.9 µg/mL) | C[C@@H](c1ccccc1)N(CC(=O)N(CCCCN)CC(=O)N(CCc1c[nH]c2ccccc12)CC(=O)N(CCc1c[nH]c2ccccc12)CC(N)=O)C(=O)CN(CCc1c[nH]cn1)C(=O)CN(CCCCN)C(=O)CN(C(=O)CN(C(=O)CN(CCCCN)C(=O)CN(C(=O)CN(C(=O)CNCCCCN)[C@@H](C)c1ccccc1)[C@@H](C)c1ccccc1)[C@@H](C)c1ccccc1)[C@@H](C)c1ccccc1 [Peptoid 78] (H-[Nlys][Nspe][Nspe][Nlys][Nspe][Nspe][Nlys][Gly(N-CH2CH2-imidazol-4-yl)][Nspe][Nlys][Gly(N(CH2)2(3-indolyl))][Gly(N(CH2)2(3-indolyl))]-NH2) | – | – | 5.2 ± 0.2 | – | – | – | – | >100.0/>100.0 | >100.0/>100.0
14 | – | – | C[C@@H](c1ccccc1)N(CC(=O)N(CCCCN)CC(=O)N(CC(=O)N(CC(=O)N(CCCCN)CC(=O)N(CC(=O)N(CC(=O)N(CCCCN)CC(=O)N(CCc1c[nH]c2ccccc12)CC(=O)N(CCc1c[nH]c2ccccc12)CC(N)=O)[C@@H](C)c1ccccc1)[C@@H](C)c1ccccc1)[C@@H](C)c1ccccc1)[C@@H](C)c1ccccc1)C(=O)CN(C(=O)CNCCCCN)[C@@H](C)c1ccccc1 [Peptoid 11-2] (H-[Nlys][Nspe][Nspe][Nlys][Nspe][Nspe][Nlys][Nspe][Nspe][Nlys][Gly(N(CH2)2(3-indolyl))][Gly(N(CH2)2(3-indolyl))]-NH2) | 8.7 µM | 29.7 µM | 110.4 ± 0.2% | – | – | 1.6 | 3.1 | – | –
